According to paper PMC5942844, “Identification and characterization of the Fasciola hepatica sodium- and chloride-dependent taurine transporter” (PLoS Neglected Tropical Diseases, 2018):
Like-named read-outs stand apart in the source and are kept apart here.

Columns and labels:
[1] = molecular target: T1, F. hepatica taurine transporter (FhTauT) (Fasciola hepatica, UniProt A0A2R4LGM2); assay: cell-based; settings: for EC50: 0.1 μM [3H]taurine; for IC50: IC50 of unlabeled taurine for [3H]taurine uptake; for inhibition of the transporter (taurine uptake): inhibitors of GABA uptake or GABA degradation
T1 sequence (A0A2R4LGM2 1-647): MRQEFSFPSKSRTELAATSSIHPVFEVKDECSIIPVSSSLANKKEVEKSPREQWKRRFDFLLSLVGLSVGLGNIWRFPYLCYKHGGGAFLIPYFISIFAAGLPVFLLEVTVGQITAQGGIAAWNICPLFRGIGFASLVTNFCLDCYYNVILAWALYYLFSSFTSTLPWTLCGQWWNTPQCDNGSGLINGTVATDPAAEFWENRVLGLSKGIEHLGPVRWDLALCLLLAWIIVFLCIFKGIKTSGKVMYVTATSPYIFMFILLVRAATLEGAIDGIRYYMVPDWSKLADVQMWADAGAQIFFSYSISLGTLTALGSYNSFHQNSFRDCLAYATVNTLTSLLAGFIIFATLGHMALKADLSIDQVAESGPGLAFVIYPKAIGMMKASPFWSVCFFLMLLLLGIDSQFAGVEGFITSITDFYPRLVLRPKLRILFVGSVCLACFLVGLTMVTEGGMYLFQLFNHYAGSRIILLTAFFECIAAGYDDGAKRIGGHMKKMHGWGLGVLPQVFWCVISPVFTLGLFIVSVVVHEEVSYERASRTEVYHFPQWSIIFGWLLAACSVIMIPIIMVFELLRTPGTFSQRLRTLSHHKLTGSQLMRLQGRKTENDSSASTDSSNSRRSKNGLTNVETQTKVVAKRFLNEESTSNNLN
Procedure: (§1) Human embryonic kidney-293 (HEK293 (ATCC CRL-1573, LGC standards Wesel, Germany)) cells, were grown in Dulbecco`s modified Eagle medium (DMEM) supplemented with 10% fetal bovine serum (FCS Nuaille, France), 100 units/ml penicillin and 100 μg/ml streptomycin at 37°C and with 5% CO2 in a humidified incubator. Cells were transfected with plasmids encoding fluorescently tagged or untagged versions of F. hepatica (FhTauT) and H. sapiens (HsTauT) taurine transporter using Jet Prime transfection reagent (Polyplus-transfection, France). To generate monoclonal cell lines stably expressing the transporters, transfected cells were subjected to and selected with the concentration of 0.2 mg/ml geneticin (G418) for 10 days. Surviving cells forming colonies were separated and analyzed for membrane localization of transporters and transport of taurine. After the selection process cells were kept at 50 μg/ml G418 to keep the selection pressure.
(§2) For saturation uptake experiments, cells were plated the day before the experiment at a density of about 50,000 cells/well onto poly (D-lysine)-coated 48-well culture plates (CytoOne, USA). On the day of the experiment, cells were washed with prewarmed Krebs-HEPES buffer twice (KHB) (120 mM NaCl, 3 mM KCl, 2 mM CaCl2, 2 mM MgCl2, 20 mM glucose, 10 mM HEPES, pH 7.3). Then, cells were incubated in KHB containing tracer amounts (0.1 μM) of [^3H]taurine, (19.1 Ci/mmol) (Perkin Elmer, USA) together with increasing concentrations of non-labeled taurine 10 min. The reaction was terminated after 10 minutes by removing the medium followed by rapid rinsing of cells with ice-cold assay buffer. Subsequently, cells were lysed with 0.5 ml of 1% sodium dodecyl sulfate (SDS) and transferred into scintillation vials for liquid scintillation counting. Non-specific uptake was determined by incubating cells in the presence of the blocker β-alanine (100 mM) before and during the experiment and subtracted from uptake values. Data were fit to a Michaelis-Menten equation.
(§3) Chloride-free KHB was prepared to examine the chloride dependence of both, FhTauT and HsTauT using acetate salts instead of chloride salts. Likewise, NaCl was replaced by choline chloride to examine the sodium requirement. Uptake experiments were performed as described above using 0.1 μM [^3H]taurine in sodium- and chloride-free modified KHB, respectively, mixed with increasing amounts of NaCl containing KHB thereby varying Na^+ and respectively Cl^- concentration from 0–120 mM. The inhibition experiments were performed in analogous manner with 0.1 μM [^3H]taurine and the logarithmically spaced concentrations of inhibitors.

[2] = molecular target: T2, human taurine transporter (HsTauT) (Homo sapiens, UniProt P31641); assay: [3H]taurine uptake by HEK293 cells stably expressing the human taurine transporter; settings: for EC50: 0.1 μM [3H]taurine; for IC50: IC50 of unlabeled taurine for [3H]taurine uptake
T2 sequence (P31641 1-620): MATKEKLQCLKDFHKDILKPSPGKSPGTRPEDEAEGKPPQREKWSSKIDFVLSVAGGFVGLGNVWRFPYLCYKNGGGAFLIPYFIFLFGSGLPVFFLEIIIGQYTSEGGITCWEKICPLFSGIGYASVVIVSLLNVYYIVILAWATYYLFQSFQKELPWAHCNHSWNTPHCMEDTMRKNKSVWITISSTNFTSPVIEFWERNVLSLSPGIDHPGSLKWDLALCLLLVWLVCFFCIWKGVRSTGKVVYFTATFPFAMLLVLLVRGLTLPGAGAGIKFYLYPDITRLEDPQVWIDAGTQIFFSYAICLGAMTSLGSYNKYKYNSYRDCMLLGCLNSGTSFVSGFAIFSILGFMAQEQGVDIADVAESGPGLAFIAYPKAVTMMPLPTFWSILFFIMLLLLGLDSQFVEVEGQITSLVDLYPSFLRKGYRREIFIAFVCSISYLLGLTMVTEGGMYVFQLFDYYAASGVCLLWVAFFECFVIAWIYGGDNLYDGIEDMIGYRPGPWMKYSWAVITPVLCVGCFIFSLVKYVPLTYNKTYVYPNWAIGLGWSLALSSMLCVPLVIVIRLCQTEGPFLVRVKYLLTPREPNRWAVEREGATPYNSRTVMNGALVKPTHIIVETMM
Procedure: as §1, §2, §3

adult F. hepatica = format: cell-based; settings: for time all flukes alive and motile: Hédon-Fleig medium; for survival of flukes: 4 h
Procedure: Fig 8 Survival of adult F. hepatica in bile acid-containing medium in the presence and absence of taurine. A: Adult flukes (12 flukes/condition in individual wells) were incubated at 37°C and 5% CO2 in a humidified atmosphere in Hédon Feig medium in the absence (control, closed circles) or presence of 50 μM taurine (closed circle), of 2 mM GES (GES, closed triangle) or of bile acids (closed triangle, 5 mM cholic acid, 1.5 mM deoxycholic acid and 0.5 mM chenodeoxycholic acid). The number of dead flukes was recorded at the indicated time points. B: Adult flukes were incubated at 37°C and 5% CO2 in a humidified atmosphere in Hédon Feig medium in the absence (control) or presence of bile acids (5 mM cholic acid, 1.5 mM deoxycholic acid and 0.5 mM chenodeoxycholic acid). Where indicated, the medium contained, in addition, 50 μM taurine or the combination of 50 μM taurine and 2 mM GES (GES) for 4h. The number of dead flukes was recorded at the end of the incubation period. The data are from three independent experiments with 11 to 12 flukes/condition. […] Thus, after Bonferroni correction for multiple testing (with α≤0.016), taurine afforded a statistically significant protection against bile acids.
F. hepatica was isolated from the bile ducts of cows slaughtered at Alpenrind GmbH (Salzburg, Austria). Flukes were kept in modified Hedon Fleig`s solution at 37°C and 5% CO2 in a humidified atmosphere. Before the experiment, flukes were maintained at 37°C for three days after extraction to clear them from bile acids. Living flukes (judged by observing movement after gently tapping them with metal forceps) were transferred into flasks containing either Hedon Fleig`s Solution alone or Hedon Fleig`s Solution supplemented with combinations of bile acids (5 mM cholic acid (CA), 1.5 mM deoxycholic acid (DCA) and […] chenodeoxycholic acid (CDC)), 50 μM taurine and 2 mM guanidinoethyl sulfonate (GES). Survival of flukes was determined again after four hours of treatment.

[3] = substrate: NCCS(=O)(=O)O; assay: cells, lysate or membranes; settings: other: 10 min uptake, HEK293 cells; pH 7.3; 37.0 °C
[4] = HEK293, read-out: residual [3H]taurine uptake
[5] = read-out: EC50 of Na+ for half-maximum stimulation of transport, sodium replaced with choline
[6] = read-out: EC50 of chloride for substrate uptake (apparent affinity), chloride replaced with acetate
[7] = read-out: EC50 of chloride for substrate uptake (apparent affinity), chloride replaced with acetate, listed as Cl^-

NC(N)=NCCS(=O)(=O)O [GES, guanidinoethyl sulfonate]
mode of inhibition of taurine uptake ([1]; Dixon plot, intersecting lines): non-competitive inhibitor | remaining activity at 1000 µM [1, 4]: ~75% | remaining activity at 3000 µM [1, 4]: ~40% | affinity of F. hepatica transporter relative to human transporter ([1]; comparison of residual uptake, Fig 6A vs 6C): about ten-fold lower | mode of inhibition of taurine uptake ([2]; Dixon plot, parallel lines): competitive inhibition | time all flukes alive and motile (adult F. hepatica; 2 mM GES alone): at least 6 h | survival of flukes (adult F. hepatica; bile acids plus 50 μM taurine plus 2 mM GES): 44%

[Na+] [Na^+]
EC50 [1, 5]: 51.4 ± 6 mM | Hill coefficient of sodium saturation curve ([1]; sodium replaced with choline): 1.6±0.1 | EC50 [2, 5]: 56.5 ± 7.1 mM | Hill coefficient of sodium saturation curve ([2]; sodium replaced with choline): 2.3±0.1

Cl [chloride]
EC50 [1, 6]: 13.9 ± 3.1 mM | EC50 [1, 7]: 14 ± 3 mM | EC50 [2, 6]: 54.8 ± 6.9 mM | EC50 [2, 7]: 55 ± 7 mM

NCCS(=O)(=O)O [taurine, 2-aminoethanesulfonic acid]
IC50 ([1]; absence of GES): 0.0117 ± 0.0041 mM | IC50 ([1]; presence of 1 mM GES): 0.0187 ± 0.0067 mM | IC50 ([1]; presence of 3 mM GES): 0.016 ± 0.0042 mM | maximum velocity of uptake ([1]; [3H]taurine, HEK293 cells): 178 ± 2 pmol*10^−6 cells*min^-1 | [3H]taurine accumulation relative to untransfected control cells ([1]; transfected vs untransfected HEK293 cells): about 10 fold | IC50 ([2]; absence of GES): 0.0412 ± 0.0082 mM | IC50 ([2]; presence of 0.1 mM GES): 0.0521 ± 0.0095 mM | IC50 ([2]; presence of 0.3 mM GES): 0.0989 ± 0.0201 mM | maximum velocity of uptake ([2]; [3H]taurine, HEK293 cells): 971.0 ± 60.3 pmol*10^−6 cells*min^-1 | time all flukes alive and motile (adult F. hepatica; 50 μM taurine alone): at least 6 h | survival of flukes (adult F. hepatica; bile acids plus 50 μM taurine): about 80%

Cc1ccsc1C(=CCCN1CCC[C@@H](C(=O)O)C1)c1sccc1C [tiagabine]
inhibition of the transporter (taurine uptake) [1]: failed to inhibit

C=CC(N)CCC(=O)O (stereo not drawn) [vigabatrin]
inhibition of the transporter (taurine uptake) [1]: failed to inhibit

B1: human taurine transporter (HsTauT) (Homo sapiens) (protein)
chain: T2 sequence (P31641 1-620)
Km [3]: 41.0 ± 10.4 µM

B2: F. hepatica taurine transporter (FhTauT) (Fasciola hepatica) (protein)
chain: T1 sequence (A0A2R4LGM2 1-647)
Km [3]: 12.0 ± 0.5 µM
